The target of test [1] is T1, Glutathione reductase, mitochondrial (Homo sapiens, UniProt P00390).
T1 sequence (P00390 whole entry): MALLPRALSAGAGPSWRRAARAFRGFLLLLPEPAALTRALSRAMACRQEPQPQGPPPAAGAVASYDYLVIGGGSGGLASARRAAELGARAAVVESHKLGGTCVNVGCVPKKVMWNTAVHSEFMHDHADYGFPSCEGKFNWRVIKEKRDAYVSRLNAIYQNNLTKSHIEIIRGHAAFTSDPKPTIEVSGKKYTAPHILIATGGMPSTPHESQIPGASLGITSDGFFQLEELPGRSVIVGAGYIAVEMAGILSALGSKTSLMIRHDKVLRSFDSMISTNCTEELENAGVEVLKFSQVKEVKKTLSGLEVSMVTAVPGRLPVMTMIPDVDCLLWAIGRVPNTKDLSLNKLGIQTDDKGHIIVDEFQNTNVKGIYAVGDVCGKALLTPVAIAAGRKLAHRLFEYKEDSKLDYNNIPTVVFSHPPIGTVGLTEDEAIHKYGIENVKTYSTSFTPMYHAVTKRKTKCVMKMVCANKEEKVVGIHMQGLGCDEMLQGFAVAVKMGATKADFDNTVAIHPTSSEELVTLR
The test can be described thus: Inhibition of human glutathione reductase.

The next test has as its target Trypanothione reductase (Trypanosoma cruzi, UniProt P28593). Kind of test: Inhibition of Trypanosoma cruzi TR.
Test [2] has as its system Trypanosoma brucei brucei. The test can be described thus: Antitrypanosomal activity against Trypanosoma brucei brucei. It is filed as functional, organism-based.

Structures are written as SMILES.

Chain of Trypanothione reductase (P28593 whole entry): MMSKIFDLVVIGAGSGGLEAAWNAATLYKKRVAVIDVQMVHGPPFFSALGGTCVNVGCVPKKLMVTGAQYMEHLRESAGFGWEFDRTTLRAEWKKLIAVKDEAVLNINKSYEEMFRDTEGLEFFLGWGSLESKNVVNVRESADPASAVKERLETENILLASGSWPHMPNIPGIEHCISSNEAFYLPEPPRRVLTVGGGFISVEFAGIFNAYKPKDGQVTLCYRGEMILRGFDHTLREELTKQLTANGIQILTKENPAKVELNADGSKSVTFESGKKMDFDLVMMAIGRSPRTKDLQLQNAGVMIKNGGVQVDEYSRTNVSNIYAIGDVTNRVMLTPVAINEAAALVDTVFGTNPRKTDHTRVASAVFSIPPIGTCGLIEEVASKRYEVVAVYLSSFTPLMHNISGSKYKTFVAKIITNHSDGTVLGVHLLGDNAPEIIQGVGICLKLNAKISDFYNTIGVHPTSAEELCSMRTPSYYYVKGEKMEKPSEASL

Consider `NC(=NCCCNCCCCCCCNCCCN=C(N)NC1CCCCCC1)NC1CCCCCC1`, for which the IC50 was > 100 µM in test [1], 17.7 µM against Trypanothione reductase and 0.18 µM in test [2].
For the compound `NC(=NCCCNCCCNCCCN=C(N)NCC(c1ccccc1)c1ccccc1)NCC(c1ccccc1)c1ccccc1`, the IC50 in test [1] was > 100 µM; on Trypanothione reductase, 3.6 µM; in test [2], 2.05 µM.
As to `N=C(NCCCNCCCNCCCNC(=N)NC(=N)NCCC(c1ccccc1)c1ccccc1)NC(=N)NCCC(c1ccccc1)c1ccccc1`, the IC50 in test [1] is > 100 µM; against Trypanothione reductase, 3.68 µM; in test [2], 1.76 µM.
In the same order, the values of `NC(=NCCCNCCCCCCCNCCCN=C(N)NCC(c1ccccc1)c1ccccc1)NCC(c1ccccc1)c1ccccc1` are > 100 µM, 4.72 µM and 0.5 µM.
As to `N=C(NCCCNCCCCCCCNCCCNC(=N)NC(=N)NCC(c1ccccc1)c1ccccc1)NC(=N)NCC(c1ccccc1)c1ccccc1`, the half-inhibitory concentration (IC50) in test [1] was > 100 µM; on Trypanothione reductase it was 1.66 µM; in test [2], 0.45 µM.
Consider `N=C(NCCCNCCCNCCCNC(=N)NC(=N)NCC(c1ccccc1)c1ccccc1)NC(=N)NCC(c1ccccc1)c1ccccc1`, for which the values for the IC50 (in test [1]; against Trypanothione reductase; in test [2]) were > 100 µM, 4.16 µM and 0.18 µM, respectively.
Take `N=C(NCCCNCCCCNCCCNC(=N)NCC(c1ccccc1)c1ccccc1)NCC(c1ccccc1)c1ccccc1`: the 50% inhibitory concentration (IC50) in test [1] was > 100 µM; against Trypanothione reductase it was 4.56 µM; in test [2] it was 3.35 µM.
Turning to `N=C(NCCCNCCCCNCCCNC(=N)NC(=N)NCC(c1ccccc1)c1ccccc1)NC(=N)NCC(c1ccccc1)c1ccccc1`, the figures for the half-inhibitory concentration (IC50) (in test [1]; against Trypanothione reductase; in test [2]) were > 100 µM, 2.74 µM and 1.05 µM, respectively.
In the same order, the values of `N=C(NCCCNCCCCNCCCNC(=N)NC(=N)NCCC(c1ccccc1)c1ccccc1)NC(=N)NCCC(c1ccccc1)c1ccccc1` are > 100 µM, 2.96 µM and 0.19 µM.
Turning to `N=C(NCCCNCCCCCCCNCCCNC(=N)NC(=N)NCCC(c1ccccc1)c1ccccc1)NC(=N)NCCC(c1ccccc1)c1ccccc1`, the IC50 was > 100 µM in test [1], 0.95 µM at Trypanothione reductase and 0.62 µM in test [2].
In the same order, the values of `NC(=NCCCNCCCCCCCNCCCN=C(N)NCCC(c1ccccc1)c1ccccc1)NCCC(c1ccccc1)c1ccccc1` are > 100 µM, 2.24 µM and 0.61 µM.
Regarding `N=C(NCCCNCCCCNCCCNC(=N)NCCC(c1ccccc1)c1ccccc1)NCCC(c1ccccc1)c1ccccc1`, the figures for the 50% inhibitory concentration (IC50) (in test [1]; at Trypanothione reductase; in test [2]) were > 100 µM, 2.97 µM and 2.4 µM, respectively.
In the same order, the values of `N=C(NCCCNCCCNCCCNC(=N)NCCC(c1ccccc1)c1ccccc1)NCCC(c1ccccc1)c1ccccc1` are > 100 µM, 5.07 µM and 1.95 µM.
For the compound `NC(=NCCCNCCCCCCCNCCCN=C(N)NCc1ccccc1)NCc1ccccc1`, the values for the half-maximal inhibitory concentration (IC50) (in test [1]; on Trypanothione reductase; in test [2]) were > 100 µM, 69.5 µM and 0.09 µM, respectively.

(Values after ChEMBL document CHEMBL1148496, “Novel alkylpolyaminoguanidines and alkylpolyaminobiguanides with potent antitrypanosomal activity” (Bioorg Med Chem Lett, 2006).)
